Experimental data published in the supplement of paper PMC11061612.

Columns and labels:
[1] = test system: COLO-824 (Breast Carcinoma); experiment: combination Emax (second highest fraction inhibited in the dose matrix, 72 h); higher = more inhibition; extreme values may be limits of the assay
In short: (§1)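 Cell lines in DMEM/F12 or RPMI with 10% FBS were plated in 1536-well plates, held 24 hours at 37°C, 5% CO2, then given two-drug dose matrices for 72 hours (DMSO typically 0.2%). Viability was read by CellTiter-Glo 2.0 luminescence and scaled as inhibition from 0 (vehicle wells) to 1 (blank wells). Combination Emax is the second-highest inhibition in the matrix; Bliss excess is observed combination effect minus expected EA + EB − EA·EB, EA and EB being single-agent effects.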

[2] = test system: COR-L311 (Small Cell Lung Carcinoma); experiment: as above
In short: as §1

FU97 (Gastric Carcinoma) = experiment: as above
In short: as §1

[3] = test system: CCK-81 (Colorectal Carcinoma); experiment: as above
In short: as §1

PA-1 (Ovarian Carcinoma) = experiment: as above
In short: as §1

[4] = test system: NCI-H2066 (Squamous Cell Lung Carcinoma); experiment: as above
In short: as §1

IGR-37 (Melanoma) = experiment: as above
In short: as §1

[5] = test system: SISO (Cervical Carcinoma); experiment: as above
In short: as §1

[6] = test system: VCaP (Prostate Carcinoma); experiment: as above
In short: as §1

[7] = test system: MDST8 (Colorectal Carcinoma); experiment: as above
In short: as §1

[8] = test system: TT (Thyroid Gland Carcinoma); experiment: as above
In short: as §1

[9] = test system: KARPAS-422 (B-Cell Non-Hodgkin's Lymphoma); experiment: as above
In short: as §1

[10] = test system: NCI-H1693 (Lung Adenocarcinoma); experiment: as above
In short: as §1

LN-405 (Glioblastoma) = experiment: as above
In short: as §1

[11] = test system: NCI-H1581 (Non-Small Cell Lung Carcinoma); experiment: as above
In short: as §1

[12] = test system: CAL-29 (Bladder Carcinoma); experiment: as above
In short: as §1

[13] = test system: COLO-320-HSR (Colorectal Carcinoma); experiment: as above
In short: as §1

[14] = test system: NCI-H2141 (Small Cell Lung Carcinoma); experiment: Bliss excess, mean over the matrix (fraction); higher = more synergy
In short: as §1

[15] = test system: PANC-10-05 (Pancreatic Carcinoma); experiment: as above
In short: as §1

[16] = test system: OS-RC-2 (Kidney Carcinoma); experiment: as above
In short: as §1
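Throughout, for Bliss excess, mean over the matrix: after 72 h of two-drug dosing.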

Cn1cnc2c(F)c(Nc3ccc(Br)cc3Cl)c(C(=O)NOCCO)cc21 [Selumetinib] + CC(C)n1c(=O)n(C)c2cnc3cc(F)c(-c4ccc(OCCCN5CCCCC5)nc4)cc3c21 [AZD1390] (first compound max 10 µM, 7x7, partner max 0.3 µM)
combination Emax [1]: 0.302
combination Emax [2]: 0.109
combination Emax (FU97 (Gastric Carcinoma)): 0.273
combination Emax [3]: 0.379
combination Emax (PA-1 (Ovarian Carcinoma)): 0.276
combination Emax [4]: 0.254
combination Emax (IGR-37 (Melanoma)): 0.76
combination Emax [5]: 0.0869
combination Emax [6]: 0.0626
combination Emax [7]: 0.537
combination Emax [8]: 0.201
combination Emax [9]: 0.123
combination Emax [10]: 0.204
combination Emax (LN-405 (Glioblastoma)): 0.129
combination Emax [11]: 0.455
combination Emax [12]: 0.216
combination Emax [13]: 0.181
Bliss excess [14]: -0.0386
Bliss excess [15]: -0.0783
Bliss excess [16]: -0.0371

Cn1cnc2c(F)c(Nc3ccc(Br)cc3Cl)c(C(=O)NOCCO)cc21 [Selumetinib] + CCN(CCO)CCCOc1ccc2c(Nc3cc(CC(=O)Nc4cccc(F)c4)[nH]n3)ncnc2c1 [AZD2811] (first compound max 10 µM, 7x7, partner max 1 µM)
combination Emax [1]: 0.825
combination Emax [2]: 0.733
combination Emax (FU97 (Gastric Carcinoma)): 0.305
combination Emax [3]: 0.372
combination Emax (PA-1 (Ovarian Carcinoma)): 0.654
combination Emax [4]: 0.286
combination Emax (IGR-37 (Melanoma)): 0.774
combination Emax [5]: 0.338
combination Emax [6]: 0.211
combination Emax [7]: 0.63
combination Emax [8]: 0.453
combination Emax [9]: 0.263
combination Emax [10]: 0.286
combination Emax (LN-405 (Glioblastoma)): 0.242
combination Emax [11]: 0.487
combination Emax [12]: 0.389
combination Emax [13]: 0.249
Bliss excess [14]: -0.0196
Bliss excess [15]: -0.0367
Bliss excess [16]: -0.0252

COc1cccc(OCCCN)c1-c1cc(Nc2cnc(C#N)cn2)n[nH]1 [Prexasertib] + C[C@@H]1COCCN1C2=NC(=NC(=C2)C3(CC3)[S@](=N)(=O)C)C4=C5C=CNC5=NC=C4 [AZD6738] (first compound max 1 µM, 7x7, partner max 10 µM)
combination Emax [1]: 0.796
combination Emax [2]: 0.771
combination Emax (FU97 (Gastric Carcinoma)): 0.308
combination Emax [3]: 0.929
combination Emax (PA-1 (Ovarian Carcinoma)): 0.778
combination Emax [4]: 0.454
combination Emax (IGR-37 (Melanoma)): 0.896
combination Emax [5]: 0.798
combination Emax [6]: 0.718
combination Emax [7]: 0.943
combination Emax [8]: 0.662
combination Emax [9]: 0.88
combination Emax [10]: 0.389
combination Emax (LN-405 (Glioblastoma)): 0.553
combination Emax [11]: 0.566
combination Emax [12]: 0.839
combination Emax [13]: 0.726
Bliss excess [14]: -0.047
Bliss excess [15]: 0.0258
Bliss excess [16]: 0.0743

Cc1c2c(nn1C)CSCc1cc(n(C)n1)CSc1cc(c3ccccc3c1)OCCCc1c(C(=O)O)n(C)c3c-2c(Cl)ccc13 [AZD5991] + Cc1cc2ncnn2cc1Nc1ncc2c(n1)n(C1CCOCC1)c(=O)n2C [AZD7648] (first compound max 1 µM, 7x7, partner max 10 µM)
combination Emax [1]: 0.364
combination Emax [2]: 0.343
combination Emax (FU97 (Gastric Carcinoma)): 0.293
combination Emax [3]: 0.933
combination Emax (PA-1 (Ovarian Carcinoma)): 0.906
combination Emax [4]: 0.299
combination Emax (IGR-37 (Melanoma)): 0.25
combination Emax [5]: 0.191
combination Emax [6]: 0.94
combination Emax [7]: 0.34
combination Emax [8]: 0.38
combination Emax [9]: 1
combination Emax [10]: 0.256
combination Emax (LN-405 (Glioblastoma)): 0.37
combination Emax [11]: 1
combination Emax [12]: 0.43
combination Emax [13]: 0.808
Bliss excess [14]: -0.0101
Bliss excess [15]: -0.0758
Bliss excess [16]: -0.068

COc1cc2ncnc(Nc3ccc(F)c(Cl)c3)c2cc1OCCCN1CCOCC1 [Gefitinib] + CC(C)n1c(=O)n(C)c2cnc3cc(F)c(-c4ccc(OCCCN5CCCCC5)nc4)cc3c21 [AZD1390] (first compound max 10 µM, 7x7, partner max 0.3 µM)
combination Emax [1]: 0.366
combination Emax [2]: 0.0812
combination Emax (FU97 (Gastric Carcinoma)): 0.149
combination Emax [3]: 0.661
combination Emax (PA-1 (Ovarian Carcinoma)): 0.351
combination Emax [4]: 0.384
combination Emax (IGR-37 (Melanoma)): 0.252
combination Emax [5]: 0.0311
combination Emax [6]: 0.0675
combination Emax [7]: 0.0181
combination Emax [8]: 0.118
combination Emax [9]: 0.128
combination Emax [10]: 0.419
combination Emax (LN-405 (Glioblastoma)): 0.104
combination Emax [11]: 0.0926
combination Emax [12]: 0.228
combination Emax [13]: 0.19
Bliss excess [14]: -0.0464
Bliss excess [15]: -0.0835
Bliss excess [16]: -0.0817

NC1(C(=O)N[C@@H](CCO)c2ccc(Cl)cc2)CCN(c2ncnc3[nH]ccc23)CC1 [Capivasertib] + COc1nnc2ccc(N3CCC(c4ccc(OCCN5CCN(C)C(=O)[C@H]5C)cc4)CC3)nn12 [AZD5153] (first compound max 10 µM, 7x7, partner max 1 µM)
combination Emax [1]: 0.776
combination Emax [2]: 1
combination Emax (FU97 (Gastric Carcinoma)): 0.821
combination Emax [3]: 0.695
combination Emax (PA-1 (Ovarian Carcinoma)): 0.998
combination Emax [4]: 0.77
combination Emax (IGR-37 (Melanoma)): 0.662
combination Emax [5]: 0.421
combination Emax [6]: 0.96
combination Emax [7]: 0.733
combination Emax [8]: 0.695
combination Emax [9]: 0.68
combination Emax [10]: 0.554
combination Emax (LN-405 (Glioblastoma)): 0.623
combination Emax [11]: 0.462
combination Emax [12]: 0.723
combination Emax [13]: 0.242
Bliss excess [14]: 0.0061
Bliss excess [15]: -0.0114
Bliss excess [16]: 0.117

CN(CCO)CC[C@H](CSc1ccccc1)Nc1ccc(S(=O)(=O)NC(=O)c2ccc(N3CCC([C@@H](O)c4ccccc4-c4ccc(Cl)cc4)CC3)cc2)cc1S(=O)(=O)C(F)(F)F [AZD4320] + C=CCn1c(=O)c2cnc(Nc3ccc(N4CCN(C)CC4)cc3)nc2n1-c1cccc(C(C)(C)O)n1 [AZD1775] (first compound max 1 µM, partner max 1 µM)
combination Emax [1]: 1
combination Emax [2]: 1
combination Emax (FU97 (Gastric Carcinoma)): 0.454
combination Emax [3]: 0.775
combination Emax (PA-1 (Ovarian Carcinoma)): 0.967
combination Emax [4]: 0.646
combination Emax (IGR-37 (Melanoma)): 0.762
combination Emax [5]: 0.549
combination Emax [6]: 0.717
combination Emax [7]: 0.992
combination Emax [8]: 0.484
combination Emax [9]: 0.978
combination Emax [10]: 0.355
combination Emax (LN-405 (Glioblastoma)): 0.379
combination Emax [11]: 0.475
combination Emax [12]: 0.942
combination Emax [13]: 0.632
Bliss excess [14]: 0.0423
Bliss excess [15]: -0.0174
Bliss excess [16]: -0.0254

CC1(C)CCC(CN2CCN(c3ccc(C(=O)NS(=O)(=O)c4ccc(NCC5CCOCC5)c([N+](=O)[O-])c4)c(Oc4cnc5[nH]ccc5c4)c3)CC2)=C(c2ccc(Cl)cc2)C1 [Venetoclax] + C=CCn1c(=O)c2cnc(Nc3ccc(N4CCN(C)CC4)cc3)nc2n1-c1cccc(C(C)(C)O)n1 [AZD1775] (first compound max 1 µM, partner max 1 µM)
combination Emax [1]: 0.967
combination Emax [2]: 0.808
combination Emax (FU97 (Gastric Carcinoma)): 0.626
combination Emax [3]: 0.784
combination Emax (PA-1 (Ovarian Carcinoma)): 0.847
combination Emax [4]: 0.203
combination Emax (IGR-37 (Melanoma)): 0.852
combination Emax [5]: 0.694
combination Emax [6]: 0.668
combination Emax [7]: 0.378
combination Emax [8]: 0.673
combination Emax [9]: 0.995
combination Emax [10]: 0.308
combination Emax (LN-405 (Glioblastoma)): 0.326
combination Emax [11]: 0.32
combination Emax [12]: 0.483
combination Emax [13]: 0.801
Bliss excess [14]: 0.0167
Bliss excess [15]: -0.0488
Bliss excess [16]: -0.078

Cc1c2c(nn1C)CSCc1cc(n(C)n1)CSc1cc(c3ccccc3c1)OCCCc1c(C(=O)O)n(C)c3c-2c(Cl)ccc13 [AZD5991] + C[C@@H]1COCCN1C2=NC(=NC(=C2)C3(CC3)[S@](=N)(=O)C)C4=C5C=CNC5=NC=C4 [AZD6738] (first compound max 1 µM, 7x7, partner max 10 µM)
combination Emax [1]: 0.868
combination Emax [2]: 0.752
combination Emax (FU97 (Gastric Carcinoma)): 0.392
combination Emax [3]: 0.979
combination Emax (PA-1 (Ovarian Carcinoma)): 0.967
combination Emax [4]: 0.359
combination Emax (IGR-37 (Melanoma)): 0.848
combination Emax [5]: 0.607
combination Emax [6]: 0.947
combination Emax [7]: 0.78
combination Emax [8]: 0.56
combination Emax [9]: 1
combination Emax [10]: 0.432
combination Emax (LN-405 (Glioblastoma)): 0.668
combination Emax [11]: 1
combination Emax [12]: 0.897
combination Emax [13]: 0.97
Bliss excess [14]: 0.0675
Bliss excess [15]: 0.0415
Bliss excess [16]: 0.0211

COc1nnc2ccc(N3CCC(c4ccc(OCCN5CCN(C)C(=O)[C@H]5C)cc4)CC3)nn12 [AZD5153] + C[C@@H]1COCCN1C2=NC(=NC(=C2)C3(CC3)[S@](=N)(=O)C)C4=C5C=CNC5=NC=C4 [AZD6738] (first compound max 1 µM, 7x7, partner max 10 µM)
combination Emax [1]: 0.869
combination Emax [2]: 0.95
combination Emax (FU97 (Gastric Carcinoma)): 0.839
combination Emax [3]: 0.95
combination Emax (PA-1 (Ovarian Carcinoma)): 0.973
combination Emax [4]: 0.41
combination Emax (IGR-37 (Melanoma)): 0.757
combination Emax [5]: 0.757
combination Emax [6]: 0.839
combination Emax [7]: 0.812
combination Emax [8]: 0.629
combination Emax [9]: 0.887
combination Emax [10]: 0.597
combination Emax (LN-405 (Glioblastoma)): 0.53
combination Emax [11]: 0.714
combination Emax [12]: 0.7
combination Emax [13]: 0.719
Bliss excess [14]: 0.043
Bliss excess [15]: -0.0928
Bliss excess [16]: 0.0699
